From US12173306B2, “Codon-optimized reduced-size ATP7A CDNA and uses for treatment of copper transport disorders” (The United States of America, as represented by the …, priority 2015, dated 2024)

Test system: C57BL/6-Atp7a^mo-br mice (mo-br mice)
Assay: Survival in a mouse model of Menkes disease (mo-br mice)
Format: in vivo
Details: single treatments, FIG. 5
Excerpt: FIG. 5 is a graph showing survival of mo-br mice treated with rAAV9-co-rsATP7A (AAV9) and copper histidinate, untreated (UT), treated with AAV9co alone, or treated with copper histidinate alone.
FIG. 6 is a graph showing survival to weaning (dark gray bars) or prolonged survival (light gray bars) in untreated (UT) mice, mice treated with AAV5-rsATP7A and copper histidinate (AAV5+Cu), AAVrh10-rsATP7A and copper histidinate (AAVrh10+copper), AAV9-rsATP7A and copper (AAV9+Cu), and AAV9 co-rsATP7A and copper (AAV9co+Cu). rsATP7A is reduced-size ATP7A cDNA (native sequence (non-codon-optimized)).
The AAV9 co-rsATP7A described in Example 2 was administered to C57BL/6-Atp7a^mo-br mice (mo-br mice) by intracerebroventricular injection. The mice were injected bilaterally on day two of life with 1.6×10^9 vg in 5 μl of lactated Ringer's solution. Some of the mice were also treated with copper histidinate (15 μg) by subcutaneous injection during the first week of life (5 μg, d4-6). About 70% of the mice treated with combination AAV9 co-rsATP7A and copper histidinate survived at least 100 days (FIG. 5).
Different AAV serotypes were also tested for efficacy in mo-br mice.

copper histidinate
survival time (did not survive past): ≤ 28 days
